Measured values published in US9139609B2, “C-4″ position substituted macrolide derivative” (priority 2011, dated 2015).
Converted amounts (≈) assume the structure as drawn.

Experiments:
[1] = tested on: Streptococcus pyogenes M808; assay: In vitro antibacterial activity, microbroth dilution method (CLSI method), test bacterium D (erythromycin resistant); type: cell-based; conditions: read-out: MIC (minimum inhibitory concentration), test bacterium D
Protocol: (§1) In vitro antibacterial activities of the compounds of the present invention against various test bacteria were measured according to the microbroth dilution method (CLSI method). Among them, the bacteria C, D and E are erythromycin resistant bacteria. The MIC values (minimum inhibitory concentration, μg/ml) for the test bacteria A and B are exemplified in Table 22.

[2] = tested on: Streptococcus pneumoniae ATCC700904; assay: In vitro antibacterial activity, microbroth dilution method (CLSI method), test bacterium C (erythromycin resistant); type: cell-based; conditions: read-out: MIC (minimum inhibitory concentration), test bacterium C
Protocol: as §1

SMILES	MIC [1]	MIC [2]
CC[C@H]1OC(=O)[C@H](C)[C@@H](O[C@H]2C[C@@](C)(OC)[C@@](O)(CN(C)CCN(C(C)C)C(C)C)[C@H](C)O2)[C@H](C)[C@@H](O[C@@H]2O[C@H](C)C[C@H](N(C)C)[C@H]2O)[C@@](C)(OC)C[C@@H](C)C(=O)[C@H](C)[C@H]2N(CCOS(N)(=O)=O)C(=O)O[C@]12C [Example 456]	≤ 2 µg/mL	0.12 to 0.25 µg/mL (≈ 0.113 to 0.234 µM)
CC[C@H]1OC(=O)[C@H](C)[C@@H](O[C@H]2C[C@@](C)(OC)[C@@](O)(CN(C)CCN(C(C)C)C(C)C)[C@H](C)O2)[C@H](C)[C@@H](O[C@@H]2O[C@H](C)C[C@H](N(C)C)[C@H]2O)[C@@](C)(OC)C[C@@H](C)C(=O)[C@H](C)[C@H]2N(CCS(=O)(=O)NC)C(=O)O[C@]12C [Example 451]	4 to 8 µg/mL (≈ 3.76 to 7.52 µM)	0.12 to 0.25 µg/mL (≈ 0.113 to 0.235 µM)
CC[C@H]1OC(=O)[C@H](C)[C@@H](O[C@H]2C[C@@](C)(OC)[C@@](O)(CN(C)CCN(C)C(C)(C)c3ccccc3OC)[C@H](C)O2)[C@H](C)[C@@H](O[C@@H]2O[C@H](C)C[C@H](N(C)C)[C@H]2O)[C@]2(C)C[C@@H](C)C(O2)[C@H](C)[C@H]2NC(=O)O[C@@]21C [Example 332]	≥ 16 µg/mL	0.5 to 2 µg/mL (≈ 0.504 to 2.02 µM)
CC[C@H]1OC(=O)[C@H](C)[C@@H](O[C@H]2C[C@@](C)(OC)[C@@](O)(CN(C)CCN3C4CCC3CC4)[C@H](C)O2)[C@H](C)[C@@H](O[C@@H]2O[C@H](C)C[C@H](N(C)C)[C@H]2O)[C@@](C)(OC)C[C@@H](C)C(=O)[C@H](C)[C@H]2N(CCNS(C)(=O)=O)C(=O)O[C@]12C [Example 446]	4 to 8 µg/mL (≈ 3.77 to 7.54 µM)	0.12 to 0.25 µg/mL (≈ 0.113 to 0.236 µM)
CC[C@H]1OC(=O)[C@H](C)[C@@H](O[C@H]2C[C@@](C)(OC)[C@@](O)(CN(C)CCN(CC)C3CCC3)[C@H](C)O2)[C@H](C)[C@@H](O[C@@H]2O[C@H](C)C[C@H](N(C)C)[C@H]2O)[C@@](C)(OC)C[C@@H](C)C(=O)[C@H](C)[C@H]2N(CCCS(C)(=O)=O)C(=O)O[C@]12C [Example 418]	≤ 2 µg/mL	0.12 to 0.25 µg/mL (≈ 0.113 to 0.236 µM)
CC[C@H]1OC(=O)[C@H](C)[C@@H](O[C@H]2C[C@@](C)(OC)[C@@](O)(CN(C)CCN(C)C)[C@H](C)O2)[C@H](C)[C@@H](O[C@@H]2O[C@H](C)C[C@H](N(C)C)[C@H]2O)[C@@](C)(OC(=O)NC/C=C/c2ccc3ncccc3c2)C[C@@H](C)C(=O)[C@H](C)[C@H]2NC(=O)O[C@@]21C [Example 348]	4 to 8 µg/mL (≈ 3.69 to 7.38 µM)	0.12 to 0.25 µg/mL (≈ 0.111 to 0.231 µM)

Next, values leading:

MIC [1]	MIC [2]	SMILES
4 to 8 µg/mL (≈ 3.82 to 7.64 µM)	0.12 to 0.25 µg/mL (≈ 0.115 to 0.239 µM)	CC[C@H]1OC(=O)[C@H](C)[C@@H](O[C@H]2C[C@@](C)(OC)[C@@](O)(CN(C)CCN(CC)CC)[C@H](C)O2)[C@H](C)[C@@H](O[C@@H]2O[C@H](C)C[C@H](N(C)C)[C@H]2O)[C@@](C)(OC)C[C@@H](C)C(=O)[C@H](C)[C@H]2N(CC3CCS(=O)(=O)C3)C(=O)O[C@]12C (some centres unmarked) [Example 154]
4 to 8 µg/mL (≈ 4.3 to 8.59 µM)	0.12 to 0.25 µg/mL (≈ 0.129 to 0.268 µM)	CC[C@H]1OC(=O)[C@H](C)[C@@H](O[C@H]2C[C@@](C)(OC)[C@@](O)(CN(C)CCN(CC)CC)[C@H](C)O2)[C@H](C)[C@@H](O[C@@H]2O[C@H](C)C[C@H](N(C)C)[C@H]2O)[C@@](C)(OC)C[C@@H](C)C(=O)[C@H](C)[C@H]2N(O)C(=O)O[C@]12C [Example 170]
4 to 8 µg/mL (≈ 3.7 to 7.4 µM)	0.12 to 0.25 µg/mL (≈ 0.111 to 0.231 µM)	CC[C@H]1OC(=O)[C@H](C)[C@@H](O[C@H]2C[C@@](C)(OC)[C@@](O)(CN(CCOC)CCN(CC)CC)[C@H](C)O2)[C@H](C)[C@@H](O[C@@H]2O[C@H](C)C[C@H](N(C)C)[C@H]2O)[C@@](C)(OC)C[C@@H](C)C(=O)[C@H](C)[C@H]2N(CCNS(C)(=O)=O)C(=O)O[C@]12C [Example 443]
≥ 16 µg/mL	0.12 to 0.25 µg/mL (≈ 0.127 to 0.264 µM)	CC[C@H]1OC(=O)[C@H](C)[C@@H](O[C@H]2C[C@@](C)(OC)[C@@](O)(CN(C)CCN(CC)C(=O)OC)[C@H](C)O2)[C@H](C)[C@@H](O[C@@H]2O[C@H](C)C[C@H](N(C)C)[C@H]2O)[C@@](C)(OC)C[C@@H](C)C(=O)[C@H](C)[C@H]2NC(=O)O[C@@]21C [Example 264]
